Assay results taken from publication PMC6290023 (Scientific Reports, 2018).
Peptide text beside a SMILES is read from it.

Columns and labels:
tPA-induced hemorrhage = format: in vivo; settings: mouse tMCAo, MHP1-AcN 150 µg/mice combined with tPA 10 mg/kg after reperfusion at 6 h; 24 h after ischemia
Protocol: The ischemic damage was evaluated at 48 h after MCAo in sections stained with cresyl violet. Coronal sections (12 μm thickness) were made at −1.4, −0.7, 0, 0.7 and 1.4 mm from the bregma, mounted on the stereomicroscope and photographed. The volume of the infarct was calculated by the sum of each area of all sections corrected by cerebral edema and multiplied by the thickness of the slices. In the experiment of tPA-induced hemorrhage, PE10-catheter was placed in the right internal jugular vein at 6 h after ischemia. The nylon suture was then removed and 10% of the MHP-AcN mixture (150 µg/mice) and tPA (10 mg/kg) were injected followed by continuous injection of residual mixture of MHP1-AcN and tPA using a syringe pump (UNIVENTOR 400 ANAESTHESIA UNIT, ZTN, MALTA). In the experiment of FeCl3 -induced thrombosis model in CCA, a piece of filter paper soaked in 7.5% FeCl3 was placed on the right CCA for 1 min and it was rinsed with saline. Blood flow was recorded by using a laser speckle blood flow imager (OMEGAZONE OZ-2, OMEGAWAVE, INC., Tokyo, Japan). tPA (10 mg/kg) or mixture of MHP1-AcN (150 μg/mice) and tPA was started to be administered at 30 min after CCA occlusion.

[1] = Dissolution in water and sedimentation in 0.45% saline at 37 °C for 24 h; format: physicochemical; settings: for sedimentation after incubation in 0.45% saline: 37 °C, 24 h, visual
Protocol: Synthetic MHP1 (NH2-[…]-COOH), MHP1-DN1 (NH2-LMVYVV-DLys-[…]-COOH), MHP1-DN2 (NH2-LMV-DTyr-[…]-COOH), MHP1-DN3 (NH2-L-DMet-[…]-COOH), MHP1-DC (NH2-LMVYVVKTSIKIPSSHNL-DMet-KGGSTKNWSGN-COOH), MHP1-Ac (Ac-[…]-COOH), MHP1-AcN (Ac-[…]-HN2), or MHP1-N (NH2-[…]-NH2) was purchased from ILS, Inc (Ibaraki, Tsukuba, Japan), dissolved in 1 or 2 mg/ml ddH2O and stored at 4 °C until use (Table 1).

[2] = Safety in normal mice (blood biochemistry); format: in vivo, mouse; settings: intravenous injection and continuous subcutaneous injection with Alzet pump, 24 h post-injection
[3] = Pharmacokinetics after intravenous injection 4 h after tMCAo (LC/MS/MS); format: in vivo; settings: mouse, i.v. 2 mg/ml, 10 ml/kg in 0.45% saline
Protocol: MHP1-Ac or MHP1-AcN (2 mg/ml, 10 ml/kg in 0.45% saline) was administered intravenously 4 hrs after tMCAo and mouse plasma was collected at 5 min, 10 min, 20 min, 30 min, 45 min, 1 h, and 2 h after injection. Mouse plasma (C57BL6J, 10 µL) and water/phosphoric acid (24:1, v/v) (Solution B, 500 µL) were mixed together to prepare the plasma samples. The samples (510 µL) were then analyzed using LC/MS/MS to determine MHP1-Ac or MHP1-AcN in plasma. Mouse brain was weighed and mixed with a 4-fold volume of solution B and the mixture was homogenized to prepare the brain samples. The specific gravity of solution B was assumed to be 1. The brain samples (10 µL) were analyzed using LC/MS/MS to determine MHP1-Ac or MHP1-AcN in brain. MHP1-Ac and MHP1-AcN, and MHP1-N (internal standard), in the plasma samples and brain samples, were extracted using Oasis HLB μElution Plate (Waters). Chromatographic analysis was performed on an InertSustain C18 (2.1 mm I.D. ×50 mm, 3 µm, GL Sciences) column using the mobile phase A, water/formic acid (1000:1, v/v), and the mobile phase B, acetonitrile/formic acid (1000:1, v/v).

sedimentation after incubation in 0.45% saline ([1]; 1 mg/ml): sedimentation was not observed | sedimentation after incubation in 0.45% saline ([1]; 2 mg/ml): sedimentation was not observed | dissolution in water ([1]; water): easily dissolved in water | level at 0.5 h ([3]; C57BL6J, iv, 20 mg/kg, plasma, 30 min, read-out: intact peptide in plasma 30 min post-injection): ~8000 ng/mL | time post-injection until which peptide was detected in the brain ([3]; brain homogenate, last sampling 2 h): 2 h
SMILES: CC[C@H](C)[C@H](NC(=O)[C@H](CO)NC(=O)[C@@H](NC(=O)[C@H](CCCCN)NC(=O)[C@@H](NC(=O)[C@@H](NC(=O)[C@H](Cc1ccc(O)cc1)NC(=O)[C@@H](NC(=O)[C@H](CCSC)NC(=O)[C@H](CC(C)C)NC(C)=O)C(C)C)C(C)C)C(C)C)[C@@H](C)O)C(=O)N[C@@H](CCCCN)C(=O)N[C@H](C(=O)N1CCC[C@H]1C(=O)N[C@@H](CO)C(=O)N[C@@H](CO)C(=O)N[C@@H](Cc1c[nH]cn1)C(=O)N[C@@H](CC(N)=O)C(=O)N[C@@H](CC(C)C)C(=O)N[C@@H](CCSC)C(=O)N[C@@H](CCCCN)C(=O)NCC(=O)NCC(=O)N[C@@H](CO)C(=O)N[C@H](C(=O)N[C@@H](CCCCN)C(=O)N[C@@H](CC(N)=O)C(=O)N[C@@H](Cc1c[nH]c2ccccc12)C(=O)N[C@@H](CO)C(=O)NCC(=O)N[C@@H](CC(N)=O)C(N)=O)[C@@H](C)O)[C@@H](C)CC [MHP1-AcN] (Ac-LMVYVVKTSIKIPSSHNLMKGGSTKNWSGN-NH2)
effect on tPA-induced hemorrhagic formation (tPA-induced hemorrhage): reduced formation of hemorrhage | blood biochemistry [2]: no abnormalities
